The results in this text go back to US20120142722A1, “CONJUGATES OF CYTOTOXIC DRUGS” (priority 2009, published 2012).

“And” between values parts separate entries of the source, which are not always exact repeats. Identical values can stand only once. “Also recorded” adds a separate entry of the source. Like-named read-outs stand apart in the source and are kept apart here. Some results are limits rather than exact numbers.

The subject of one series is A375-melanoma cells. Kind of series: In vitro cytotoxicity, XTT tetrazolium dye reduction cell viability assay. The conditions noted are these: Homo sapiens. The series is classed as cell-based. In general terms: Tetrazolium assays rely on reduction of a dye to a coloured formazan, in cell work by metabolically active cells.
For another series, the system named is A375 melanoma tumors. Kind of series: Tumor growth inhibition in subcutaneous A375 melanoma xenograft. The class given is in vivo, athymic nude mice.
The nature of series [1]: Maximal tolerated dose in healthy nude mice. To be noted: female, athymic (nu/nu), mouse, in vivo, iv; i.v. on 5 consecutive days; determined 24 hr after the last dose; no lethality and body weight loss <20%. The protocol:
Increasing doses of ATT-11E were tested on nude mice for their effect on body weight. Healthy female athymic (nu/nu) mice (6-8 weeks) (Harlan Inc., Jerusalem, Israel) were used for determination of maximum tolerable dose (MTD). MTD was defined as the maximum dose that caused no drug-related lethality and that produced animal body weight loss of <20% of original weight. ATT-11E was dissolved in phosphate buffer (pH 7.4) containing 10% DMSO and 30% cremophor and administered by i.v. injection. ATT-11E was administered on 5 consecutive days. Body weight of mice was monitored daily and MTD was determined 24 hr post last dose.

Series [2] in a line: White blood cell count in A375 tumor bearing mice. The series is classed as in vivo. To be noted: ATT-1 3 doses of 30 mg/kg, CCNU 6 doses of 15 mg/kg; tested 1 and 4 days post last dose. The protocol:
Repeated doses of ATT-1 (3 doses of 30 mg/kg) and CCNU (6 doses of 15 mg/kg) were administered to A375 tumor bearing mice and WBC was tested (at AML, Herzelia, Israel) 1 and 4 days post last dose.

For series [3] the following is noted: mouse, in vivo.
The mark [4] stands for this setting: A-375, 48 h, read-out: IC50 (inhibitory concentration of 50% of cells).
Where [5] appears, read: female, beagle, dog, in vivo, iv, 6 mg/kg.

For `CCc1c2c(nc3ccc(OC(=O)N4CCC(N5CCCCC5)CC4)cc13)-c1cc3c(c(=O)n1C2)COC(=O)[C@]3(O)CC` [CPT-11, Irinotecan, reference compound], the IC50 in the series with A375-melanoma cells (A-375, 24 h, A375 cells, Example 10, incubated for 24 hr, XTT, read-out: IC50) worked out at 44 µM; with A375-melanoma cells (A-375, 24 h, A375 cells, Example 15 / FIG. 14, 24 hours of incubation, read-out: IC50) it was 9 µM. The “Tumor growth delay after the last dose (in words)” value in the series with A375 melanoma tumors (i.v., ATT-11TBE 20 mg/kg 3 times a week (9 doses), CPT-11 75 mg/kg once a week for three weeks, 22 days after the last dose) was “never reached the complete tumor regression”. In addition, the “Plasma level of derived SN-38 at 24 hours after administration (in words)” value (6 mg/kg intravenous, beagle dogs, 24 hours) is “below detection level”.
By % inhibition is commonly meant the share of the control response that was lost under treatment. By MTD is commonly meant the largest dose that counted as tolerated. A low value points to poorer tolerability. Take `CCOC(=O)C(C)(CCC1CCN(C(=O)Oc2ccc3nc4c(c(CC)c3c2)Cn2c-4cc3c(c2=O)COC(=O)C3(O)CC)CC1)C(=O)OCC` (stereo not shown) [ATT-11E]: the IC50 with A375-melanoma cells (A-375, 24 h) is 0.6 µM; in the series on A375-melanoma cells (setting [4]) it was 0.6 µM. The “% inhibition” value with A375 melanoma tumors (mouse, in vivo, 1 mg/kg) is on record as 54%; in the series with A375 melanoma tumors (mouse, in vivo, 2.5 mg/kg), 65%; with A375 melanoma tumors (mouse, in vivo, 5 mg/kg), 72%; in the series on A375 melanoma tumors (mouse, in vivo, 20 mg/kg), 88%; with A375 melanoma tumors (mouse, in vivo, 30 mg/kg) it was 93%. For the same compound, the T/C was 0.46 and 0.62 with A375 melanoma tumors (mouse, in vivo, 1 mg/kg); 0.35 with A375 melanoma tumors (mouse, in vivo, 2.5 mg/kg); 0.41 with A375 melanoma tumors (mouse, in vivo, 3 mg/kg); 0.28 with A375 melanoma tumors (mouse, in vivo, 5 mg/kg); 0.39 in the series with A375 melanoma tumors (mouse, in vivo, 9 mg/kg); 0.07 with A375 melanoma tumors (mouse, in vivo, 30 mg/kg). The T/C in the series with A375 melanoma tumors (mouse, in vivo, 40 mg/kg) came to 0.1. Besides, the “Tumor volume growth inhibition (TVI)” value was 97% with A375 melanoma tumors (mouse, in vivo, 20 mg/kg) and 90% with A375 melanoma tumors (mouse, in vivo, 40 mg/kg). This compound also gave an MTD at 5 days in series [1] of over 40 mg/kg.
Regarding `CCCCCC(CCC1CCC(NC(=O)N(CCCl)N=O)CC1)(C(=O)O)C(=O)O` (stereo not shown) [ATT-1], in the series with A375-melanoma cells (setting [4]), the IC50 amounted to 545 µM. Besides, in the series on A375 melanoma tumors (mouse, in vivo), the T/C stood at 0.24; the “T/C, ratio of tumor volume of treated compared to control” value was 0.33; the “T/C, tumor volume treated compared to control” value is recorded as 0.52; the Tumor growth inhibition is 48% and 76%. For the same compound, the “Tumor growth inhibition compared with control” value in the series on A375 melanoma tumors (mouse, in vivo) is 77% and 73%. In addition, the “Reduction of WBC compared to the control” value in series [2] was found to be 27%. The compound further gave a Weight loss in series [3] of 14%.
On to `O=NN(CCCl)C(=O)NC1CCCCC1` [CCNU, Chloroethylcyclo-hexylnitrosourea, reference compound], for which the IC50 in the series with A375-melanoma cells (A-375, 48 h, A375 cells, 48 hours of incubation, XTT, read-out: IC50 (inhibitory concentration of 50% of cells)) came out at 200 µM. Further, in the series with A375 melanoma tumors (equal total dose: ATT-1 3 doses of 30 mg/kg, CCNU 6 doses of 15 mg/kg, day 23), the “T/C, tumor volume treated compared to control” value worked out at 0.47. The compound also gave a Tumor growth inhibition with A375 melanoma tumors (equi-molar doses: ATT-1 3×30 mg/kg, CCNU 3×15 mg/kg) of 48%. Moreover, the T/C in the series with A375 melanoma tumors (equi-molar doses: ATT-1 3×30 mg/kg, CCNU 3×15 mg/kg, day 30) amounted to 0.56. Moreover, in series [2], the “Reduction of WBC compared to the control” value came to 89%. In addition, in series [3], the Weight loss is on record as 19%.
In the case of `CCc1c2c(nc3ccc(OC(=O)N4CCC(CCC(C)(C(=O)OC(C)(C)C)C(=O)OC(C)(C)C)CC4)cc13)-c1cc3c(c(=O)n1C2)COC(=O)C3(O)CC` (stereo not shown) [ATT-11TBE], the IC50 in the series with A375-melanoma cells (A-375, 24 h) came out at 0.8 µM. The “Tumor growth delay after the last dose (in words)” value in the series with A375 melanoma tumors (mouse, in vivo) is “complete tumor regression; also recorded: substantially inhibited tumor growth, even 22 days after the last dose”. For the same compound, in the series with A375 melanoma tumors (mouse, in vivo, 5 mg/kg), the “Tumor volume growth inhibition (TVI)” value was 97%. The “Tumor volume growth inhibition (TVI)” value in the series on A375 melanoma tumors (mouse, in vivo, 20 mg/kg) is 100%. Further, the “Plasma level of derived SN-38 at 24 hours after administration (in words)” value (dog, in vivo) was “still detectable”. Also, under setting [5], the “AUC of metabolite SN-38, fold larger than SN-38 derived from CPT-11” value is reported as 3.6 fold and the “Plasma half-life (t1/2) of metabolite SN-38, fold longer than SN-38 derived from CPT-11” value is given as 3.1 fold.
In the case of `CCOC(=O)C(C)(CCC1CCC(NC(=O)N(CCCl)N=O)CC1)C(=O)OCC` (stereo not shown) [ATT-5E], the IC50 in the series with A375-melanoma cells (setting [4]) is 130 µM.
